Measurements taken from ChEMBL document CHEMBL1136329, “A theoretical investigation on DPPH radical-scavenging mechanism of edaravone” (Bioorg Med Chem Lett, 2003).

Test: Scavenging activity against DPPH
Assay type: functional

IC50: 29.3 uM l-1
SMILES: CC1=NN(c2ccccc2)C(=O)C1 [EDARAVONE]
